These results are taken from publication PMC10459693, “Toward Stability Enhancement of NTS1R-Targeted Radioligands: Structural Interventions on [^99mTc]Tc-DT1” (Pharmaceutics, 2023).

Peptide text beside a SMILES is read from it. * marks the point of attachment. Palmitoyl = CCCCCCCCCCCCCCCC(=O)*; X1 = NCCNCC(CNCCN)C(=O)*

Data set [1] can be described thus: Radioligand metabolic stability in peripheral mouse blood (radio-HPLC). As to conditions: peripheral mouse blood 5 min pi. Type of data set: in vivo, mice. The protocol: For the assessment of in vivo stability of [^99mTc]Tc-DT7/8/9, healthy Swiss Albino mice (33 animals, >8 weeks of age, body weight: 30 ± 5 g) were obtained from NCSR “Demokritos” Animal House (Athens, Greece). Animals were injected through the tail vein with the radioligand (100 μL, 2 nmol in vehicle: PBS/EtOH 9/1 v/v, with the addition of 0.1% Tween-80 in the case of [^99mTc]Tc-DT9) plus vehicle (100 μL; controls) or plus Lis (100 μg in 100 μL vehicle; Lis). Additional mice groups received per os a suspension of Entresto® (200 μL, 12 mg, 30 min prior to the i.v. injection of the radioligand plus vehicle—Entresto® group; or the i.v. injection of the radioligand plus Lis—Entresto®+Lis group). Animals were euthanized 5 min post injection (pi), and blood samples were drawn from the heart via a prechilled insulin syringe and transferred rapidly into pre-cooled 1.5 mL LoBind Eppendorf tubes containing EDTA (20 μL, 0.1 mM EDTA), and the collected radioactivity was measured in a dose calibrator (CURIEMENTOR 4, PTW Freiburg-GmbH; Freiburg, Germany). The tubes were centrifuged for 10 min at 2000× g at 4 °C in a Hettich Universal 320 R centrifuge (Tuttlingen, Germany). The plasma was collected, diluted in a 1:1 v/v ratio with MeCN, and thoroughly mixed; sample tubes were again centrifuged for 10 min at 15000× g at 4 °C. The supernatant was collected and the volume reduced to 50–100 μL under a gentle flux of N2 and mild heating at 60 °C. […] Sample activity was measured in the dose calibrator, and aliquots were analyzed by radio-HPLC on a Symmetry Shield RP18 cartridge column (5 μm, 3.9 mm × 20 mm; Waters, Eschborn, Germany) eluted at a flow rate of 1 mL/min with the linear gradient (system 2): from 100% A/0% B to 60% A/40% B in 40 min (A: 0.1% aqueous TFA; B: MeCN). […] The tR of intact [^99mTc]Tc-DT7, [^99mTc]Tc-DT8, or [^99mTc]Tc-DT9 was determined by co-injection of blood samples processed as above with an aliquot of the labeling solution. […]

In another data set the test system is AsPC-1 cells. In words: NTS1R-specific uptake and internalization in AsPC-1 cells. The format is cell-based, human. The protocol:
The NTS1R-specific internalization of [^99mTc]Tc-DT1/7/8/9 radioligands was compared in AsPC-1 cells. The cells were seeded in 6-well plates (1 × 10^6 cells per well) and left to grow overnight. The following day, the medium was aspirated, and the cells were washed twice with internalization medium (2 mL IM: RPMI supplemented with 1% v/v FBS) on ice. They were placed on the bench, and warm IM (1200 μL 37 °C) was added per well, followed by radioligand solution (150 μL, 250 fmol) and either IM (150 μL total: T; upper wells) or NT (10^−5 M in IM, non-specific: NS; lower wells). The plates were placed in the Incubator-Orbital Shaker at 37 °C for 1 h, and the incubation was interrupted by placing the plates on ice. The supernatant was collected in RIA tubes, and the cells were washed with 1 mL phosphate-buffered saline (PBS, pH 7.4, 4 °C) containing 0.5% w/v BSA, and the washing was also collected in the same RIA tube. Cells were treated twice for 5 min with glycine buffer (600 μL, 50 mM glycine, 0.1 M NaCl, pH 2.8), and supernatants were collected (membrane bound fraction, MB). The cells were washed again with 1 mL ice-cold PBS-BSA buffer, which was discarded. Finally, cells were lysed (2 × 600 μL 1 M NaOH), and the lysates were collected (internalized fraction, IF). Sample radioactivity was measured on the γ-counter. Specific values for MB and IF were acquired by subtracting NS values from T ones. Results are expressed as mean percentage of added radioactivity ± sd, n = 3. In addition, time-dependent internalization in AsPC-1 cells was directly compared for [^99mTc]Tc-DT1/9 by incubation at 37 °C for 15 min, 30 min, 1 h, and 2 h, following the above-described protocol for each time point.

In the case of `CCCCCCCCCCCCCCCC(=O)NCCCC[C@H](NC(=O)C(CNCCN)CNCCN)C(=O)N[C@@H](CCCNC(=N)N)C(=O)N[C@@H](CCCNC(=N)N)C(=O)N1CCC[C@H]1C(=O)N[C@@H](Cc1ccc(O)cc1)C(=O)N[C@H](C(=O)N[C@@H](CC(C)C)C(=O)O)[C@@H](C)CC` [[^99mTc]Tc-DT9, metal not drawn] (X1-K(Palmitoyl)RRPYIL-OH), the intact radioligand in data set [1] (Control) is 98.06 ± 1.18 (n = 3) %; in data set [1] (Entresto), 97.33 ± 1.7 (n = 3) %; in data set [1] (Entresto+Lis), 93.72 ± 3.7 (n = 3) %. Further, the “internalization, specific of added radioactivity” value in the data set with AsPC-1 cells (1 h at 37 °C) turned out to be 16.53 ± 1.12%. The “specific cell uptake of added radioactivity (internalized + membrane bound)” value with AsPC-1 cells (1 h at 37 °C) was found to be 16.76 ± 1.16%. Besides, the “specific uptake of added radioactivity (time-dependent internalization)” value in the data set on AsPC-1 cells (2 h at 37 °C) is given as 21.5 ± 1.0%.
